Experimental data taken from US12310973B2, “Administration and dosage of diaminophenothiazines” (WisTa Laboratories Ltd., priority 2016, dated 2025).

Tested on: mild to moderate AD patients
Assay: Phase 3 trial in mild to moderate AD: safety outcomes (adverse events)
Format: in vivo, human
Conditions: for Maximum mean change in haemoglobin from baseline: at 6 weeks
Description: Patients were monitored throughout for adverse events (AEs) and clinical laboratory testing, physical and neurological examinations and 12-lead electrocardiograms were performed at all clinic visits (screening, baseline and Weeks 2, 6, 13, 26, 39, 52, 65 and 69). Patients were also assessed at all visits for suicidal ideation and intent, and were systematically assessed for signs of serotonin toxicity.

CN(C)c1ccc2c(c1)Sc1cc(N(C)C)ccc1N2 [LMTM, leuco-methythioninium bis(hydromethanesulfonate)]
Maximum mean change in haemoglobin from baseline (4 mg b.i.d.): -0.01 g/L | AESI: ARIA, % (75 mg b.i.d. (n = 267)): (1.5) % | AESI: Methemoglobinemia, hemolytic anemia, and/or Heinz bodies, % (75 mg b.i.d. (n = 267)): (0) % | AESI: “Serotonin syndrome”, % (75 mg b.i.d. (n = 267)): (0.7) % | Anemia, % of patients (75 mg b.i.d. (n = 267)): (8.2%) | Anemia, number of patients (75 mg b.i.d. (n = 267)): 22 | At least one TEAE, % of patients (75 mg b.i.d. (n = 267)): (83.9%) | At least one TEAE, number of patients (75 mg b.i.d. (n = 267)): 224 | Blood and lymphatic system disorders, % of patients (75 mg b.i.d. (n = 267)): (10.9%) | Blood and lymphatic system disorders, number of patients (75 mg b.i.d. (n = 267)): 29 | Blood folate decreased, % of patients (75 mg b.i.d. (n = 267)): (6.7%) | Blood folate decreased, number of patients (75 mg b.i.d. (n = 267)): 18 | Cough, % of patients (75 mg b.i.d. (n = 267)): (5.2%) | Cough, number of patients (75 mg b.i.d. (n = 267)): 14 | Deaths, % (75 mg b.i.d. (n = 267)): (1.1) % | Diarrhea, % of patients (75 mg b.i.d. (n = 267)): (23.6%) | Diarrhea, number of patients (75 mg b.i.d. (n = 267)): 63 | Dysuria, % of patients (75 mg b.i.d. (n = 267)): (2.6%) | Dysuria, number of patients (75 mg b.i.d. (n = 267)): 7 | Gastrointestinal disorders, % of patients (75 mg b.i.d. (n = 267)): (39.3%) | Gastrointestinal disorders, number of patients (75 mg b.i.d. (n = 267)): 105 | Infections and infestations, % of patients (75 mg b.i.d. (n = 267)): (31.1%) | Infections and infestations, number of patients (75 mg b.i.d. (n = 267)): 83 | Investigations, % of patients (75 mg b.i.d. (n = 267)): (32.6%) | Investigations, number of patients (75 mg b.i.d. (n = 267)): 87 | Nausea, % of patients (75 mg b.i.d. (n = 267)): (8.2%) | Nausea, number of patients (75 mg b.i.d. (n = 267)): 22 | Other SUSARs, % (75 mg b.i.d. (n = 267)): (0.7) % | Pollakiuria, % of patients (75 mg b.i.d. (n = 267)): (5.6%) | Pollakiuria, number of patients (75 mg b.i.d. (n = 267)): 15 | Renal and urinary disorders, % of patients (75 mg b.i.d. (n = 267)): (22.8%) | Renal and urinary disorders, number of patients (75 mg b.i.d. (n = 267)): 61 | Respiratory, thoracic and mediastinal disorders, % of patients (75 mg b.i.d. (n = 267)): (12.0%) | Respiratory, thoracic and mediastinal disorders, number of patients (75 mg b.i.d. (n = 267)): 32 | Urinary incontinence, % of patients (75 mg b.i.d. (n = 267)): (6.7%) | Urinary incontinence, number of patients (75 mg b.i.d. (n = 267)): 18 | Urinary tract infection, % of patients (75 mg b.i.d. (n = 267)): (10.9%) | Urinary tract infection, number of patients (75 mg b.i.d. (n = 267)): 29 | Vomiting, % of patients (75 mg b.i.d. (n = 267)): (9.4%) | Vomiting, number of patients (75 mg b.i.d. (n = 267)): 25 | Maximum mean change in haemoglobin from baseline (75 mg b.i.d.): -0.47 g/L | AESI: ARIA, % (125 mg b.i.d. (n = 264)): (0.4) % | AESI: Methemoglobinemia, hemolytic anemia, and/or Heinz bodies, % (125 mg b.i.d. (n = 264)): (0.4) % | AESI: “Serotonin syndrome”, % (125 mg b.i.d. (n = 264)): (0) % | Anemia, % of patients (125 mg b.i.d. (n = 264)): (5.7%) | Anemia, number of patients (125 mg b.i.d. (n = 264)): 15 | At least one TEAE, % of patients (125 mg b.i.d. (n = 264)): (86.7%) | At least one TEAE, number of patients (125 mg b.i.d. (n = 264)): 229 | Blood and lymphatic system disorders, % of patients (125 mg b.i.d. (n = 264)): (9.5%) | Blood and lymphatic system disorders, number of patients (125 mg b.i.d. (n = 264)): 25 | Blood folate decreased, % of patients (125 mg b.i.d. (n = 264)): (7.2%) | Blood folate decreased, number of patients (125 mg b.i.d. (n = 264)): 19 | Cough, % of patients (125 mg b.i.d. (n = 264)): (4.2%) | Cough, number of patients (125 mg b.i.d. (n = 264)): 11 | Deaths, % (125 mg b.i.d. (n = 264)): (1.1) % | Diarrhea, % of patients (125 mg b.i.d. (n = 264)): (25.4%) | Diarrhea, number of patients (125 mg b.i.d. (n = 264)): 67 | Dysuria, % of patients (125 mg b.i.d. (n = 264)): (10.2%) | Dysuria, number of patients (125 mg b.i.d. (n = 264)): 27 | Gastrointestinal disorders, % of patients (125 mg b.i.d. (n = 264)): (42.0%) | Gastrointestinal disorders, number of patients (125 mg b.i.d. (n = 264)): 111 | Infections and infestations, % of patients (125 mg b.i.d. (n = 264)): (28.8%) | Infections and infestations, number of patients (125 mg b.i.d. (n = 264)): 76 | Investigations, % of patients (125 mg b.i.d. (n = 264)): (30.3%) | Investigations, number of patients (125 mg b.i.d. (n = 264)): 80 | Nausea, % of patients (125 mg b.i.d. (n = 264)): (7.2%) | Nausea, number of patients (125 mg b.i.d. (n = 264)): 19 | Other SUSARs, % (125 mg b.i.d. (n = 264)): (1.5) % | Pollakiuria, % of patients (125 mg b.i.d. (n = 264)): (6.8%)
